This note sets out measurements from patent US20260159533A1, “INHIBITORS OF COMPLEMENT FACTORS AND USES THEREOF” (Annexon, Inc., priority 2022, published 2026).

Where a name gives a salt, the structure may show the parent alone.

For the assay, the target named is T1, human C1s protein (Homo sapiens, UniProt P09871).
T1 construct: purchased R&D Systems or Complement Technologies 2060-SE or A104
T1 sequence (P09871 16-688): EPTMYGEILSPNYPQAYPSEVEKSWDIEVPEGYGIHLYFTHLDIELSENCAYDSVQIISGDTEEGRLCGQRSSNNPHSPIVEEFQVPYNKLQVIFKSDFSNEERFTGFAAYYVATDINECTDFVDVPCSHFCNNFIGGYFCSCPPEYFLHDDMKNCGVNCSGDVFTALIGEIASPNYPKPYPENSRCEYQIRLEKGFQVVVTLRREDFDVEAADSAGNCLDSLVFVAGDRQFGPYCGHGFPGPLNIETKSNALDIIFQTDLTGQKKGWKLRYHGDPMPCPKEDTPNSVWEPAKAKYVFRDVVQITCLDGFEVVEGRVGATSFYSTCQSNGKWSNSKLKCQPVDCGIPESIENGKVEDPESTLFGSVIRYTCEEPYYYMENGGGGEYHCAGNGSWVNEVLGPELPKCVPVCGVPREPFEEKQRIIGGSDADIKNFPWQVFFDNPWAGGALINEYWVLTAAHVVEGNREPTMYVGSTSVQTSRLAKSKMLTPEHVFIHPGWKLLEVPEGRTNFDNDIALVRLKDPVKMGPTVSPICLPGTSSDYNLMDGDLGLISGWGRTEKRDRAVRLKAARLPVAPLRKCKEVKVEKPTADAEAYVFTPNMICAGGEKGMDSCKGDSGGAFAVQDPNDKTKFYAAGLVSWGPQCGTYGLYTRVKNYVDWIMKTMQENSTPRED
As to the kind of experiment: recombinant C1s enzymatic assay (YLGR-Rh110-dPro substrate hydrolysis, fluorescence). It is filed as biochemical. The note with it: recombinant human C1s 2.5 nM, substrate YLGR-Rh110-dPro 20 μM, 15 min pre-incubation, 60 min RT; read-out: rec. hC11s pIC50 (converted). As to the method:
Compound testing in the purified or recombinant C1s enzymatic assay C1s is a serine protease; its enzymatic activity is measured in vitro by the hydrolysis of the synthetic substrate YLGR-Rh110-dPro (Kerr F K, O'Brien G, Quinsey N S, Whisstock J C, Boyd S, de la Banda M G, Kaiserman D, Matthews A Y, Bird P I, Pike R N. Elucidation of the substrate specificity of the Cis protease of the classical complement pathway. J. Biol. Chem. (2005) 280, 39510-39514). The enzyme cleaves the substrate with the release of Rh110 which is highly fluorescent. Cis inhibitors prevent the hydrolysis of the substrate thus resulting in a decrease of the signal.
The recombinant C1s enzymatic assay is performed using the human C1s protein (R&D Systems, 2060-SE or Complement Technologies, A104). The assay buffer composition is: 50 mM HEPES pH 7.5 (Sigma, H3375), 150 mM NaCl (Sigma, S7653), 0.2% PEG 8000 (VWR, AA43443-22), 0.01% Pluronic F127 (Sigma, P2243). On the day of the experiment 0.1 mg/mL BSA (Sigma, B4287) is added fresh to the buffer. The test item stock solutions are serially diluted 1:3 or 1:4 or 1:5 with DMSO, 11-point curves, in a 384-well compound plate. Nafamostat concentration curve is always included in the assay plate as a reference control.
The assay plate is prepared by dispensing 0.25 μL from compound plate into a 384-well black assay plate (assay plate, Greiner Fluotrac 200, 781076, VWR 736-0140). The high controls are prepared dispensing in 0.25 μL DMSO in column 23, rows AH or AP and low controls with 0.25 μL of 0.1 μM Nafamostat. Cis solution is prepared as 2× of the 2.5 nM final assay concentration. The YLGR-Rh110-dPro substrate is prepared as 2× of the final assay concentration of 20 μM. 5 μL/well of 2× enzyme solution is dispensed and pre-incubated for 15 min with the compounds. The enzymatic reaction is the started with 5 μL/well of the 2× substrate solution. The plate is incubated for 60 min RT in the dark and fluorescence is measured (ex 485/em 535 nm) using an Envision (PerkinElmer) or an equivalent instrument.
Take `Cc1cc(-c2ncco2)c(-c2ccc3c(N)cnnc3c2)cc1B(O)O` [Example 42, [5-(4-aminocinnolin-7-yl)-2-methyl-4-oxazol-2-yl-phenyl]boronic acid formic acid salt]: the IC50 is 2.04 nM.

For `Nc1cnnc2cc(-c3cc4c(cc3-n3cccn3)OCCOB4O)ccc12` [Example 70, 8-(4-aminocinnolin-7-yl)-7-(1H-pyrazol-1-yl)-3,4-dihydro-1H-2,5,1-benzodioxaborepin-1-ol], the IC50 is 1.26 nM.

Turning to `COc1cc(-n2cc(F)cn2)c(-c2ccc3c(N)cnnc3c2)cc1B(O)O` [Example 40, [5-(4-aminocinnolin-7-yl)-4-(4-fluoropyrazol-1-yl)-2-methoxyphenyl]boronic acid], the IC50 was 1.58 nM.

As for `Nc1cnnc2cc(-c3cc(B(O)O)ccc3-n3nccn3)ccc12` [Example 15, [3-(4-aminocinnolin-7-yl)-4-(2H-1,2,3-triazol-2-yl)phenyl]boronic acid formic acid salt], the IC50 was 0.933 nM.

For `CNC(=O)c1ccn(-c2ccc(B(O)O)cc2-c2ccc3c(N)cnnc3c2)n1` [Example 6, [3-(4-aminocinnolin-7-yl)-4-[3-(methylcarbamoyl)-1H-pyrazol-1-yl]phenyl]boronic acid], the IC50 was 29.5 nM.

Regarding `Nc1cnnc2cc(-c3cc(B(O)O)ccc3-n3cc(F)cn3)ccc12` [Example 11, [3-(4-aminocinnolin-7-yl)-4-(4-fluoro-1H-pyrazol-1-yl)phenyl]boronic acid formic acid salt], the IC50 was 1.45 nM.

For `Nc1cnnc2cc(-c3cc4c(cc3-c3nccs3)OCCOB4O)ccc12` [Example 76, 7-(1-hydroxy-7-thiazol-2-yl-3,4-dihydro-2,5,1-benzodioxaborepin-8-yl)cinnolin-4-amine], the IC50 is 1.45 nM.

Take `CNC(=O)c1cnn(-c2ccc(B(O)O)cc2-c2ccc3c(N)cnnc3c2)c1` [Example 2, [3-(4-aminocinnolin-7-yl)-4-[4-(methylcarbamoyl)-1H-pyrazol-1-yl]phenyl]boronic acid formic acid salt]: the IC50 was 3.89 nM.

Take `Nc1cnnc2cc(-c3cc(B(O)O)ccc3-c3ccccn3)ccc12` [Example 63, [3-(4-aminocinnolin-7-yl)-4-(2-pyridyl)phenyl]boronic acid formic acid salt]: the IC50 was 15.5 nM.

Turning to `COc1cc(-c2ncc(F)s2)c(-c2ccc3c(N)cnnc3c2)cc1B(O)O` [Example 75, [5-(4-aminocinnolin-7-yl)-4-(5-fluorothiazol-2-yl)-2-methoxy-phenyl]boronic acid], the IC50 is 0.977 nM.

`COc1cnn(-c2ccc(B(O)O)cc2-c2ccc3c(N)cnnc3c2)c1` [Example 28, [3-(4-aminocinnolin-7-yl)-4-(4-methoxy-1H-pyrazol-1-yl)phenyl]boronic acid formic acid salt]: the IC50 is 2.19 nM.

Turning to `CC1(C)COc2cc(-n3cccn3)c(-c3ccc4c(N)cnnc4c3)cc2B(O)O1` [Example 77, 7-(1-hydroxy-3,3-dimethyl-7-pyrazol-1-yl-4H-2,5,1-benzodioxaborepin-8-yl)cinnolin-4-amine], the IC50 was 1.58 nM.

Turning to `Nc1cnnc2cc(-c3cc(B(O)O)ccc3-c3ncccn3)ccc12` [Example 26, [3-(4-aminocinnolin-7-yl)-4-(pyrimidin-2-yl)phenyl]boronic acid formic acid salt], the IC50 is 7.24 nM.

With `COc1cc(-c2ncc(C(F)F)s2)c(-c2ccc3c(N)cnnc3c2)cc1B(O)O` [Example 86, [5-(4-aminocinnolin-7-yl)-4-[5-(difluoromethyl)thiazol-2-yl]-2-methoxy-phenyl]boronic acid], the IC50 is 0.741 nM.

As for `Nc1cnnc2cc(-c3cc(B(O)O)ccc3-n3ccc(C(F)F)n3)ccc12` [Example 14, [3-(4-aminocinnolin-7-yl)-4-[3-(difluoromethyl)-1H-pyrazol-1-yl]phenyl]boronic acid formic acid salt], the IC50 was 14.8 nM.

As to `Cc1cc(-n2cccn2)c(-c2ccc3c(N)cnnc3c2)cc1B(O)O` [Example 8, [5-(4-aminocinnolin-7-yl)-2-methyl-4-(1H-pyrazol-1-yl)phenyl]boronic acid], the IC50 was 14.8 nM.

In the case of `COc1cc(-n2cc(OC(F)(F)F)cn2)c(-c2ccc3c(N)cnnc3c2)cc1B(O)O` [Example 85, [5-(4-aminocinnolin-7-yl)-2-methoxy-4-[4-(trifluoromethoxy)pyrazol-1-yl]phenyl]boronic acid formic acid salt], the IC50 is 1.2 nM.

Turning to `COc1cc(-c2ncco2)c(-c2ccc3c(N)cnnc3c2)cc1B(O)O` [Example 32, [5-(4-aminocinnolin-7-yl)-2-methoxy-4-(1,3-oxazol-2-yl)phenyl]boronic acid formic acid salt], the IC50 is 0.832 nM.

With `COc1cc(-c2ncc(C(F)F)o2)c(-c2ccc3c(N)cnnc3c2)cc1B(O)O` [Example 90, [5-(4-aminocinnolin-7-yl)-4-[5-(difluoromethyl)oxazol-2-yl]-2-methoxy-phenyl]boronic acid formic acid salt], the IC50 is 1.02 nM.

As to `Nc1cnnc2cc(-c3cc(B(O)O)ccc3-n3ccnn3)ccc12` [Example 16, [3-(4-aminocinnolin-7-yl)-4-(1H-1,2,3-triazol-1-yl)phenyl]boronic acid], the IC50 was 3.98 nM.

Consider `Nc1cnnc2cc(-c3cc(B(O)O)cc4c3-n3nccc3CCO4)ccc12` [Example 65, [[10-(4-aminocinnolin-7-yl)-4,5-dihydropyrazolo[5,1-d][1,5]benzoxazepin-8-yl]boronic acid formic acid salt], for which the IC50 is 2.4 nM.

For the molecule `Nc1cnnc2cc(-c3cc(B(O)O)ccc3-c3nc[nH]n3)ccc12` [Example 20, [3-(4-aminocinnolin-7-yl)-4-(1H-1,2,4-triazol-3-yl)phenyl]boronic acid], the IC50 was 0.776 nM.

For `CC1COB(O)c2cc(-c3ccc4c(N)cnnc4c3)c(-n3cccn3)cc2O1` (stereo not shown) [Example 71, 7-(1-hydroxy-4-methyl-7-pyrazol-1-yl-3,4-dihydro-2,5,1-benzodioxaborepin-8-yl)cinnolin-4-amine], the IC50 is 2.09 nM.

As to `Cc1cc(-c2nccs2)c(-c2ccc3c(N)cnnc3c2)cc1B(O)O` [Example 53, [5-(4-aminocinnolin-7-yl)-2-methyl-4-thiazol-2-yl-phenyl]boronic acid formic acid salt], the IC50 was 9.55 nM.

As for `N#Cc1ccnn1-c1ccc(B(O)O)cc1-c1ccc2c(N)cnnc2c1` [Example 22, [3-(4-aminocinnolin-7-yl)-4-(5-cyano-1H-pyrazol-1-yl)phenyl]boronic acid], the IC50 is 0.851 nM.

Consider `CC1COc2cc(-n3cccn3)c(-c3ccc4c(N)cnnc4c3)cc2B(O)O1` (single isomer, unassigned; enantiomer 2) [Example 73, 7-(1-hydroxy-3-methyl-7-pyrazol-1-yl-3,4-dihydro-2,5,1-benzodioxaborepin-8-yl)cinnolin-4-amine enantiomer 2], for which the IC50 is 1.51 nM.

For `CC(=O)Nc1cnn(-c2ccc(B(O)O)cc2-c2ccc3c(N)cnnc3c2)c1` [Example 10, [3-(4-aminocinnolin-7-yl)-4-(4-acetamido-1H-pyrazol-1-yl)phenyl]boronic acid formic acid salt], the IC50 was 1.78 nM.

Consider `Nc1cnnc2cc(-c3cc(B(O)O)ccc3-n3cncn3)ccc12` [Example 5, [3-(4-aminocinnolin-7-yl)-4-(1H-1,2,4-triazol-1-yl)phenyl]boronic acid formic acid salt], for which the IC50 is 1.32 nM.
